From patent US20070042037A1, “Pharmaceutical composition containing levodopa and carbidopa” (priority 2003, published 2007)

Legend:
[1] = Dissolution test, continuous-flow dissolution chamber, in vitro release; type: physicochemical; settings: pH 1.1 artificial gastric juice, 25 ml/min, 37° C., mean of 6 measurements
Method: Six samples of a 250 mg preparation (50+200) were tested using a solution at pH 1.1 (artificial gastric juice) in a continuous-flow dissolution chamber (25 ml/min, 37° C.). The following percentages of release during the 24 hours were obtained (each value is the mean of 6 measurements): […]

[2] = in vivo; cited from earlier work
[3] = 3rd hour, 250 mg preparation (50 mg carbidopa+200 mg levodopa, ethylcellulose-coated granules)
[4] = 6th hour, 250 mg preparation (50+200)
[5] = 9th hour, 250 mg preparation (50+200)
[6] = 12th hour, 250 mg preparation (50+200)
[7] = 24th hour, 250 mg preparation (50+200)

| In vitro release, % released average [1, 3] [%] | In vitro release, % released average [1, 4] [%] | In vitro release, % released average [1, 5] [%] | In vitro release, % released average [1, 6] [%] | In vitro release, % released average [1, 7] [%] | Structure (SMILES) | Time to attain the maximum plasmatic concentration [2] [h] |
| --- | --- | --- | --- | --- | --- | --- |
| 26 | 39 | 51 | 63 | 89 | C[C@@](Cc1ccc(O)c(O)c1)(NN)C(=O)O [Carbidopa, carbidopa] | – |
| 22 | 43 | 59 | 68 | 90 | N[C@@H](Cc1ccc(O)c(O)c1)C(=O)O [Levodopa, levodopa] | 1 to 2 |
